Tests used:
[1] = target: T1, phosphorylated ERBB2 (pERBB2) (Homo sapiens, UniProt P04626); test: Detection of phosphorylated ERBB2 (pERBB2) by ELISA in BT-474 cells; assay type: cell-based; conditions: four hours incubation with compound, OD 450 nm
T1 construct: endogenous in cells; host or cells: BT-474
How it was run: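 BT-474 cells were treated for 4 h at 37 °C with four-fold compound dilutions from 10 μM to 0.01 nM final, then lysed. Phospho-ERBB2 in the lysates was measured by ELISA with TMB read-out at 450 nm. Relative activity was normalised between cell-free wells and 0.1% DMSO-treated cells.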

[2] = target: T2, Ba/F3 ERBB2-P780_Y781insGSP (Homo sapiens, UniProt P04626, DUP778-780, cells depend on it); test: Cell viability assay (CellTiter Glo); assay type: cell-based, mouse; conditions: 72 hours; 3000 cells per well, 96-well plates; read-out: Cell viability IC50, nM, Ba/F3 ERBB2-P780_Y781insGSP
T2 construct: Ba/F3 cell lines were engineered to express human ERBB2 or EGFR kinases, rendering the cells IL-3 independent
Protocol: Cells were treated with compounds, and cell viability was measured as a metric of kinase inhibition.
The Ba/F3 cell line is IL-3-dependent mouse cell line derived from the C3H mouse strain. Ba/F3 cell lines were engineered to express human ERBB2 or EGFR kinases, rendering the cells IL-3 independent. The lines were generated via retroviral transduction utilizing a Moloney murine leukemia virus (MMLV) promoter, and constructs are stably integrated into the cell genome.
Similarly, Ba/F3 cell lines engineered to express EGFR, ERBB2, or ERBB2 mutants were grown, harvested, counted and seeded at 3000 cells per well in 96-well plates for the data sets shown in Tables B3-B4, and seeded at 300 cells per well in 384-well plates for the data set shown in Table B5. A subset of wells contained media only (low control, “LC”).
Table B2 provides the growth media and number of cells seeded per well for the each cell line.
Compounds were dissolved in DMSO and serially diluted. Serially-diluted compound or a DMSO only control (high control, “HC”) was added to the plated cells in each well. […] The final proportion of DMSO never exceeded 0.1%.
Plates were placed in a 37° C., 5% CO2 incubator for 72 hours. Plates were then removed from the incubator and equilibrated for 15 minutes at room temperature. 40 IA of CellTiter Glo reagent (Promega) was added to measure the relative level of metabolically active cells by quantifying intracellular ATP concentrations. Plates were incubated for 30 minutes at room temperature, and luminescence was measured. […] Graphical curves were fitted using a nonlinear regression model with a sigmoidal dose response.

[3] = target: T3, Ba/F3 ERBB2 A775_G776insYVMA (Homo sapiens, UniProt P04626, DUP772-775, cells depend on it); test: Cell viability assay (CellTiter Glo); assay type: cell-based, mouse; conditions: 72 hours; 3000 cells per well, 96-well plates (Tables B3-B4); read-out: Cell viability IC50, nM, Ba/F3 ERBB2 A775_G776insYVMA
T3 construct: Ba/F3 cell lines were engineered to express human ERBB2 or EGFR kinases, rendering the cells IL-3 independent
How it was run: (§1)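 Murine Ba/F3 cells made IL-3-independent by retroviral human EGFR or ERBB2 were seeded at 3000 or 300 cells per well and exposed to serially diluted compound (DMSO ≤0.1%) for 72 hours at 37° C, 5% CO2. CellTiter Glo luminescence was normalised to DMSO and media-only controls and fitted to a sigmoidal dose-response.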

Ba/F3 ERBB2-V777L = target: T4, Ba/F3 ERBB2-V777L (Homo sapiens, UniProt P04626, V777L, cells depend on it); test: Cell viability assay (CellTiter Glo); assay type: cell-based, mouse; conditions: 72 hours; 3000 cells per well, 96-well plates; read-out: Cell viability IC50, nM, Ba/F3 ERBB2-V777L
T4 construct: Ba/F3 cell lines were engineered to express human ERBB2 or EGFR kinases, rendering the cells IL-3 independent
How it was run: as §1

Ba/F3 ERBB2-G776VC = target: T5, Ba/F3 ERBB2-G776VC (Homo sapiens, UniProt P04626, DELINS776-776VC, cells depend on it); test: Cell viability assay (CellTiter Glo); assay type: cell-based, mouse; conditions: 72 hours; 3000 cells per well, 96-well plates; read-out: Cell viability IC50, nM, Ba/F3 ERBB2-G776VC
T5 construct: Ba/F3 cell lines were engineered to express human ERBB2 or EGFR kinases, rendering the cells IL-3 independent
How it was run: as §1

Ba/F3 ERBB2-L755S = target: T6, Ba/F3 ERBB2-L755S (Homo sapiens, UniProt P04626, L755S, cells depend on it); test: Cell viability assay (CellTiter Glo); assay type: cell-based, mouse; conditions: 72 hours; 3000 cells per well, 96-well plates; read-out: Cell viability IC50, nM, Ba/F3 ERBB2-L755S
T6 construct: Ba/F3 cell lines were engineered to express human ERBB2 or EGFR kinases, rendering the cells IL-3 independent
T6 sequence (P04626 whole entry L755S): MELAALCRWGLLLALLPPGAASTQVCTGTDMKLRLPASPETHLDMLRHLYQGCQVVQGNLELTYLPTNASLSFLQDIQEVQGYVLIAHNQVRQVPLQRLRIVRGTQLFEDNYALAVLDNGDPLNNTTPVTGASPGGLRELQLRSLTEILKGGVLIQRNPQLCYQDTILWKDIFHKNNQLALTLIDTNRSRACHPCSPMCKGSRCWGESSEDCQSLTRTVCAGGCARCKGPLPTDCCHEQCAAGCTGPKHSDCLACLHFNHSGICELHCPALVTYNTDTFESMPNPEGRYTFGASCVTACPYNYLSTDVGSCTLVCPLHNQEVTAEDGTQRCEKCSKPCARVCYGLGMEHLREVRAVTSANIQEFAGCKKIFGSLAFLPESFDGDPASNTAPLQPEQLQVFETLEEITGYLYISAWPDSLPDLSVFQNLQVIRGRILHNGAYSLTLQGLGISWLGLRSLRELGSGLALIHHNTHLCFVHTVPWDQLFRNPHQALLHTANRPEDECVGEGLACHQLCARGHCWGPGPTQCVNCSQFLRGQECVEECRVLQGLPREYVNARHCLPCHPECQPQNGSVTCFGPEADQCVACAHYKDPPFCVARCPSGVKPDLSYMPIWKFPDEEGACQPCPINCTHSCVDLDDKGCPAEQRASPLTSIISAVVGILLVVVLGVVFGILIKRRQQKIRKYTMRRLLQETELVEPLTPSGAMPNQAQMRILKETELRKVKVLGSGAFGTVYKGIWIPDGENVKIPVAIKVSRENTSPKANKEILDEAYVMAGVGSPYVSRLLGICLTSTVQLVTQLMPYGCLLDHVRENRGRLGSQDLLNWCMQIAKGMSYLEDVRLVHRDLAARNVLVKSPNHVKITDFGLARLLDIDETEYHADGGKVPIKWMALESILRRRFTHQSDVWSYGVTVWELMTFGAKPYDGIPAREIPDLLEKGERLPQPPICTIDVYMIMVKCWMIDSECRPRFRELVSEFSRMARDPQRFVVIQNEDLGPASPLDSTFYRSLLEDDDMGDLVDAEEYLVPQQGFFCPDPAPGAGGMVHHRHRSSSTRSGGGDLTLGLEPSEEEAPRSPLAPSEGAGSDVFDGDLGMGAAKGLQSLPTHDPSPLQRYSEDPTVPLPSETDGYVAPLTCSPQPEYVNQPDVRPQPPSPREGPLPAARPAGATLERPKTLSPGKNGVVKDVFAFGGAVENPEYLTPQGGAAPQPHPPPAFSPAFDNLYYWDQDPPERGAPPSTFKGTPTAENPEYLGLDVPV
How it was run: as §1

Ba/F3 ERBB2-T798M = target: T7, Ba/F3 ERBB2-T798M (Homo sapiens, UniProt P04626, T798M, cells depend on it); test: Cell viability assay (CellTiter Glo); assay type: cell-based, mouse; conditions: 72 hours; 3000 cells per well, 96-well plates; read-out: Cell viability IC50, nM, Ba/F3 ERBB2-T798M
T7 construct: Ba/F3 cell lines were engineered to express human ERBB2 or EGFR kinases, rendering the cells IL-3 independent
How it was run: as §1

[4] = target: T8, Ba/F3 ERBB2-V777_G778insGC (Homo sapiens, UniProt P04626, INS778CG, cells depend on it); test: Cell viability assay (CellTiter Glo); assay type: cell-based, mouse; conditions: 72 hours; 3000 cells per well, 96-well plates; read-out: Cell viability IC50, nM, Ba/F3 ERBB2-V777_G778insGC
T8 construct: Ba/F3 cell lines were engineered to express human ERBB2 or EGFR kinases, rendering the cells IL-3 independent
T8 sequence (P04626 with tags, fused parts or gaps INS778CG): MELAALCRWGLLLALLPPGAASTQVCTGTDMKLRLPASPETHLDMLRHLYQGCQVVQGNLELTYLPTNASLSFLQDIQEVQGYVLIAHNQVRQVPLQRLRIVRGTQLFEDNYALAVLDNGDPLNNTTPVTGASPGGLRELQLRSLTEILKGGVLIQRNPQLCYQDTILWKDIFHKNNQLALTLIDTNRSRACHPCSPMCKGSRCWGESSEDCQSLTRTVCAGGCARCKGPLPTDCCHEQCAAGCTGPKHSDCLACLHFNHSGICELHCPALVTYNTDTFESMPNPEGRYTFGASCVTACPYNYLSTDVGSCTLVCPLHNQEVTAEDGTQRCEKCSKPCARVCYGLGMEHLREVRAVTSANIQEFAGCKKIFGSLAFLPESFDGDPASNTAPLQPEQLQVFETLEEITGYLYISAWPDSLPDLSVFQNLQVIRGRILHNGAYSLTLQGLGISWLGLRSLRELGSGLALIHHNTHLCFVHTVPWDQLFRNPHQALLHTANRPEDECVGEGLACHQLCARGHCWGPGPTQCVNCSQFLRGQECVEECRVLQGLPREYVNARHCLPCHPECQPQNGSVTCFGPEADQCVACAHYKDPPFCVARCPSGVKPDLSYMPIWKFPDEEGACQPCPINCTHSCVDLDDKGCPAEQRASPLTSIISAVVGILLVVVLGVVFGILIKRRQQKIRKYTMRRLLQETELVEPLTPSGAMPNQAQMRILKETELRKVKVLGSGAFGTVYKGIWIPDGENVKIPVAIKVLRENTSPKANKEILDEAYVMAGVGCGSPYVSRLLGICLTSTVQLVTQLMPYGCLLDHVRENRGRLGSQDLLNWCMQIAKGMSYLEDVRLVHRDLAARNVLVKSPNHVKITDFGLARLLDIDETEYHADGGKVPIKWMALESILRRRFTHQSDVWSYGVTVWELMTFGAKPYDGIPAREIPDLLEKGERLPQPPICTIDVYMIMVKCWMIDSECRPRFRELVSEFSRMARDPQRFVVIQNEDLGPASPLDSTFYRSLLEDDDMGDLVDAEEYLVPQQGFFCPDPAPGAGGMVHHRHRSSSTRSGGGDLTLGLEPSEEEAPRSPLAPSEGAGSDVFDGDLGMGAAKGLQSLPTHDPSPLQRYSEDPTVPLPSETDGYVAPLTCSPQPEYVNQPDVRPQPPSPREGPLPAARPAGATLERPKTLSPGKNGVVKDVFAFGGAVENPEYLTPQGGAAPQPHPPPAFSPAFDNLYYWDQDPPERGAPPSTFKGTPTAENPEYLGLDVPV
How it was run: as §1

Ba/F3 ERBB2 wt = target: T9, Ba/F3 ERBB2 wt (Homo sapiens, UniProt P04626); test: Cell viability assay (CellTiter Glo); assay type: cell-based, mouse; conditions: 72 hours; 3000 cells per well, 96-well plates; read-out: Cell viability IC50, nM, Ba/F3 ERBB2 wt
T9 construct: Ba/F3 cell lines were engineered to express human ERBB2 or EGFR kinases, rendering the cells IL-3 independent
T9 sequence (P04626 whole entry, change not shown): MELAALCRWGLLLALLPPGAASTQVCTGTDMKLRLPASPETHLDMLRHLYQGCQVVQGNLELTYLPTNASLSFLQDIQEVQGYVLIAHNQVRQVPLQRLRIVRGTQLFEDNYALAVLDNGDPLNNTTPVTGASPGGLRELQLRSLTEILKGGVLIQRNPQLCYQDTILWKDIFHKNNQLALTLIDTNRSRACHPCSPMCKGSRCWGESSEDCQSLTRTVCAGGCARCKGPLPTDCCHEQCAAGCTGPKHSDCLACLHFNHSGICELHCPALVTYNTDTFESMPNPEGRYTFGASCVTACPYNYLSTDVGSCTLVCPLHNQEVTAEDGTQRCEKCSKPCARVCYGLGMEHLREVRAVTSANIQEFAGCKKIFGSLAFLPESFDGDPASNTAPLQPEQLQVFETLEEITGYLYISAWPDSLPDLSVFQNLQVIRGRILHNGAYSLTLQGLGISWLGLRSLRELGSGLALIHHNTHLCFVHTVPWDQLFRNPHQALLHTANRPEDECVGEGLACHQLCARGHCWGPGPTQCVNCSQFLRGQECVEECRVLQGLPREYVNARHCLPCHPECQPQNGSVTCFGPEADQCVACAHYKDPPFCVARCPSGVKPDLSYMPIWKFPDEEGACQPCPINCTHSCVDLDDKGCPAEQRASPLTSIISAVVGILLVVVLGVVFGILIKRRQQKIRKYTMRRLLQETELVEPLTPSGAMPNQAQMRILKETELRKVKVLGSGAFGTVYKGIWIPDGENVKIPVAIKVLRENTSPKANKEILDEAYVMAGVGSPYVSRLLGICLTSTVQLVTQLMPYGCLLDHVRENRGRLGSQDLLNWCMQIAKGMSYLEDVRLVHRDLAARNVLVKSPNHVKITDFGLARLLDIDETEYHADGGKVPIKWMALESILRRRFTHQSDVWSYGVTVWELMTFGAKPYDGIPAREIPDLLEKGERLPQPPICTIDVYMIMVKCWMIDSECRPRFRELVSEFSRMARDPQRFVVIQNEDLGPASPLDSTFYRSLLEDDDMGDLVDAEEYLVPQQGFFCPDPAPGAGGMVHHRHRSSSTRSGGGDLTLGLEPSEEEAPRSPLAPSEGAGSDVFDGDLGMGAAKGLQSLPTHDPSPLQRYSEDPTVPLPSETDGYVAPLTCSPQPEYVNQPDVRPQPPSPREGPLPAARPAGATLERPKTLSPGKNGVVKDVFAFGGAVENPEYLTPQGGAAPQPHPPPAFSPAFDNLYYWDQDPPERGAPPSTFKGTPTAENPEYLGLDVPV
How it was run: as §1

T1 sequence (P04626 23-1255): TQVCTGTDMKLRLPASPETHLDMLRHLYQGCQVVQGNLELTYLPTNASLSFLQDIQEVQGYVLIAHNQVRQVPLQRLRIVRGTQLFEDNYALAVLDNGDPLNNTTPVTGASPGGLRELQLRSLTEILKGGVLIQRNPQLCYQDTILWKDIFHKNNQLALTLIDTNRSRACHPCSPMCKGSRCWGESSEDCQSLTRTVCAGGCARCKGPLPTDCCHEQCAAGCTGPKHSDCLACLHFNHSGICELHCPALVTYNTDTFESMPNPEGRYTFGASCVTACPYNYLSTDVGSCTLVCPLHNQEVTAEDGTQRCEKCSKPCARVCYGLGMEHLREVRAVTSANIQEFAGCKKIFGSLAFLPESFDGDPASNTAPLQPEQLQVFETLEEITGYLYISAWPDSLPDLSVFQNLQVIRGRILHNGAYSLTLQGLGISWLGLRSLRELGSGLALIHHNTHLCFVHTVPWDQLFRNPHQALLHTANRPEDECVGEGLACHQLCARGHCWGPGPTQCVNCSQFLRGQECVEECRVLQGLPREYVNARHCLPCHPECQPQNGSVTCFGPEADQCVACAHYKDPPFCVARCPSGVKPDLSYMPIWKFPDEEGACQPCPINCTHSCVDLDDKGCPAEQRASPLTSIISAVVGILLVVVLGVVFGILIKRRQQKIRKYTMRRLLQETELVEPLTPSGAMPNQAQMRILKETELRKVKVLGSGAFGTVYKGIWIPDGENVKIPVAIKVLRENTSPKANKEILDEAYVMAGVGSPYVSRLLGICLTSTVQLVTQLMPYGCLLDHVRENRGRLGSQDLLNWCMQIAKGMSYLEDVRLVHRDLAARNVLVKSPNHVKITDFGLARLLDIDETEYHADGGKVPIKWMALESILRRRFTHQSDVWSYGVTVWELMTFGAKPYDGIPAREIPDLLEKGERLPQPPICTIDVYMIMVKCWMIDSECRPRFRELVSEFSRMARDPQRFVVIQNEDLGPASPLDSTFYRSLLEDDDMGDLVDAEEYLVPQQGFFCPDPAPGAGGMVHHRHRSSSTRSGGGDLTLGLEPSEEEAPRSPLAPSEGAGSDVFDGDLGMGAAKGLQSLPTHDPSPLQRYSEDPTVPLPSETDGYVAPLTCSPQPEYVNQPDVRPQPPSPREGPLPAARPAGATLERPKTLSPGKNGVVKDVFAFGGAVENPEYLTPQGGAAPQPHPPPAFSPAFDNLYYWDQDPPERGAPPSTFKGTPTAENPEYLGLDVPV

| Structure (SMILES) | IC50 [1] | GI50 [2] | GI50 [3] | GI50 (Ba/F3 ERBB2-V777L) | GI50 (Ba/F3 ERBB2-G776VC) | GI50 (Ba/F3 ERBB2-L755S) | GI50 (Ba/F3 ERBB2-T798M) | GI50 [4] | GI50 (Ba/F3 ERBB2 wt) |
| --- | --- | --- | --- | --- | --- | --- | --- | --- | --- |
| CC#CC(=O)Nc1ccc2ncnc(Nc3ccc(Oc4ccn5ncnc5c4)c(C)c3)c2c1 [Compound 1, N-[4-[(3-methyl-4-[[1,2,4]triazolo[1,5-a]pyridin-7-yloxy]phenyl)amino]quinazolin-6-yl]but-2-ynamide] | 10.3 nM | 0.65 nM | 4.4 nM | < 1 nM | 2.6 nM | ~1 nM | 15 nM | < 1 nM | 1.5 nM |
| CC#CC(=O)Nc1cc2c(Nc3ccc(Oc4ccn5ncnc5c4)c(C)c3)ncnc2cc1OCCN(C)C [Compound 150, N-[7-[2-(dimethylamino)ethoxy]-4-[(3-methyl-4-[[1,2,4]triazolo[1,5-a]pyridin-7-yloxy]phenyl)amino]quinazolin-6-yl]but-2-ynamide] | 7.05 nM | 2.63 nM | 8.42 nM | 1.73 nM | 13.6 nM | 11.4 nM | 56.9 nM | 3.01 nM | 2.12 nM |
| Cc1cc(Nc2ncnc3ccc(NC4=NC(C)(C)CO4)cc23)ccc1Oc1ccn2ncnc2c1 [Tucatinib, tucatinib, reference compound] | 23.1 nM | 25.3 nM | 356 nM | 11 nM | 193 nM | 228 nM | 1370 nM | 12.5 nM | 26.5 nM |

Reference: patent US20230265098A1, “ALKYNE QUINAZOLINE DERIVATIVES AS INHIBITORS OF ERBB2” (EnLiven Therapeutics, Inc., priority 2020, published 2023)
